Key:
Format in all cases: biochemical
chymotrypsin = target: T1, chymotrypsin (Bos taurus, UniProt P00766); test: Chymotrypsin reaction, test for non-specific activity (410 nm); conditions: alternative enzyme chymotrypsin; 30 nM enzyme, 200 μM N-succinyl-Ala-Ala-Pro-Phe p-nitroanilide, 25°C
T1 construct: purchased Sigma-Aldrich
Method: (§1) Chymotrypsin reactions were followed at 410 nm using 30 nM enzyme and 200 μM N-succinyl-Ala-Ala-Pro-Phe p-nitroanilide at 25°C. β-galactosidase reactions were followed at 420 nm using 4 nM enzyme and 1 mM 2-nitrophenyl β-D-galactopyranoside at 37°C. […] Enzymes and substrates were purchased from Sigma-Aldrich.

β-galactosidase = β-galactosidase reaction, test for non-specific activity (420 nm); conditions: alternative enzyme β-galactosidase; 4 nM enzyme, 1 mM 2-nitrophenyl β-D-galactopyranoside, 37°C
Method: as §1

[1] = target: TEM β-lactamase (TEM, M182T variant) (Escherichia coli, UniProt P62593, M180T); test: TEM β-lactamase nitrocefin hydrolysis activity assay (UV-vis, 482 nm); conditions: for % change in rate: 50 µM nitrocefin; for kcat: TEM + 100 µM compound, nitrocefin
TEM L220N = TEM L220N (Escherichia coli, UniProt P62593, L218N/M180T)
TEM T265V = TEM T265V (Escherichia coli, UniProt P62593, M180T/T261V)
[2] = detergent-dependence: 0% Triton-X
[3] = detergent-dependence: 0.01% Triton-X

Row | SMILES | % change in rate (chymotrypsin) [%] | % change in rate (β-galactosidase) | % change in rate ([1]; 10x enzyme test: 1 nM TEM) | % change in rate ([1]; 10x enzyme test: 10 nM TEM) | kcat [1] [s⁻¹] | % modulation of kcat / Km ([1]; TEM, 100 µM compound vs no compound) [%] | decrease of kcat/Km ([1]; TEM, as worded in the text (decreasing kcat/Km by)) [%] | % change in rate [1, 2] | % change in rate [1, 3] | kcat (TEM L220N) [s⁻¹] | kcat (TEM T265V) [s⁻¹]
1 | COc1cccc(C(=O)C[C@@H](c2ccccc2)C(C)(C)[N+](=O)[O-])c1 (racemic) [compound 3] | -2 | +3% | -47% | -48% | 256 ± 28 | -59 | 59 | -40% | -45% | – | –
2 | Oc1ccc(CC[C@H]2CC[C@H](c3ccc(O)cc3)CO2)cc1 (relative stereo) [compound 1] | -5 | +2% | +65% | – | 527 ± 8 | – | – | – | +66% | 5.2 ± 0.3 | –
3 | c1nc(NCCCN2CCOCC2)c2c3c(sc2n1)CCCC3 [compound 2] | -1 | +5% | +38% | +33% | 334 ± 5 | – | – | +30% | +33% | – | 307 ± 17
